Measurements taken from patent US20060127980A1, “Human excitatory amino acid transporter-2 gene promoter and uses thereof” (priority 2003, published 2006).

Legend:
hEAAT2 promoter [1] = assay: hEAAT2 promoter luciferase assay of agents in H4 glioma cells (FIG. 12); assay type: cell-based, human; settings: H4 malignant glioma cells; 10 μM
Protocol: (§1) FIG. 12. Effect of various agents on hEAAT2 promoter activity in H4 human malignant glioma cells. A: ceftriaxone; B: amoxicillin; C: chloramphenicol; D: thiamphenicol; E: vancomycin; F: glycine; G: glutamate; H: DMSO; I: dibutyryl cAMP. H4 is a rare clone of malignant glioma cells that support hEAAT2 promoter activity. H4 cells were seeded at 5×10^4 cells/35-mm plate. Twenty-four h later cells were untreated (CON) or received the indicated compound at a final concentration of 10 μM. Forty-eight h later the cells were transfected with a FL pGL3/EAAT2 luciferase reporter construct (5 μg) plus a pSVβGalactosidase construct (1 μg) using the calcium phosphate precipitation method (Su et al. 2003, Proc. Natl. Acad. Sci. USA 100:1955-1960). After an additional 48 h, cell lysates were prepared and luciferase activity was determined using the Luciferase Assay System Kit (Promega, E1501) and luminescence determined using a luminometer (Turner Designs, TD20/20) (Su et al. 2003, Proc. Natl. Acad. Sci. USA 100:1955-1960). Data presented are the average of 3 independent plates±S.D. Qualitatively similar results were obtained in 2 additional experiments.
as §1, with “H4, the third cell line examined,” for “FIG. 12. Effect of various agents on hEAAT2 promoter activity in H4 human malignant glioma cells. A: ceftriaxone; B: amoxicillin; C: chloramphenicol; D: thiamphenicol; E: vancomycin; F: glycine; G: glutamate; H: DMSO; I: dibutyryl cAMP. H4”, “activity. In the studies shown in FIG. 12,” for “activity.”

hEAAT2 promoter [2] = assay: flhEAAT2Prom-luc and deletion mutant luciferase reporter assay in PHFA treated with modulators; assay type: cell-based, human; settings: four day treatment
Protocol: FIG. 4A-D. Effect of modulators of hEAAT2 activity on hEAAT2 expression and hEAAT2 promoter activity in PHFA. A. A Northern analysis of hEAAT2 and GAPDH mRNA expression following treatment with EGF (30 ng/ml), TGF-α (30 ng/ml), dbcAMP (200 μM, bromo-cAMP (100 μM) or TNF-α (200 U/ml) for 7 days. B. Nuclear run-on assays determining the relative rates of hEAAT2 and GAPDH transcription as a function of 7-day treatment with the same concentrations of the indicated agents. C. A time course of mRNA expression of hEAAT2 and GAPDH following treatment with EGF, bromo-cAMP or TNF-α (same concentrations as in A.). D. Fold luciferase activity in PHFA transfected with flhEAAT2Prom-luc or various deletion mutants of hEAAT2 and non-transfected controls treated with the indicated compounds for four days.
Construction of hEAAT2 Promoter Deletion Mutants and Performance of the Luciferase Assays. 5′-deletion mutants of the hEAAT2 promoter were made with exonuclease III digestion using the Erase-A-Base System (Promega) as described for the PEG-3 promoter (Su et al., 2000, Oncogene 19(30):3411-3421). The flhEAAT2Prom-luc and flhEAAT2Prom-luc deletion mutants were cloned into the pGL3-basic luciferase reporter vector (Promega) and luciferase reporter assays were performed as described (Su et al., 2000, Oncogene 19(30):3411-3421; Su et al., 2001, Nucleic Acids Res 29(8):1661-1671), except that instead of using lipofectamine, which was toxic to PHFA, the calcium phosphate precipitation transfection technique was used (Babiss et al., 1986, Proc Natl Acad Sci USA 83(7):2167-2171).
Preferential Expression of the hEAAT2 Promoter in PHFA and Deletion Analysis of the hEAAT2 Promoter. hEAAT2 is expressed in brain-derived cells, mainly astrocytes (Tanaka et al., 1997, Science 276(5319):1699-1702; Anderson et al., 2000, Glia 32(1):1-14). Experiments were performed to confirm hEAAT2 promoter activity in normal human astrocytes and to determine expression levels in other cell types (FIG. 2A). Primary early passage and established human normal and tumor cell lines were co-transfected with a putative full-length ˜2.5 kb hEAAT2 promoter, a SacII fragment extending from bp −2426 to bp +44, was cloned into the pGL3-basic vector (Promega), where it drove expression of the firefly luciferase (luc) gene, and a pSV-β-galactosidase expression plasmid. Relative fold expression of a full length hEAAT2 promoter-luciferase (flhEAAT2Prom-luc) construct was determined as described (Su et al., 2000, Oncogene 19(30):3411-3421; Su et al., 2001, Nucleic Acids Res 29(8):1661-1671), and activity versus transfection with a pSV-β-galactosidase plasmid was calculated as described (Su et al., 2000, Oncogene 19(30):3411-3421; Su et al., 2001, Nucleic Acids Res 29(8):1661-1671) to equalize for differences in transfection efficiency.
To examine further the relationship between hEAAT2 and treatment with the various glutamate transporter modulators, transient transfection assays were performed in PHFA using the flhEAAT2Prom-luc constructs and various deletions thereof (FIG. 4D). […] In the case of dbcAMP, promoter activity was enhanced by ˜3-fold.

Question: `CCCC(=O)Nc1ncnc2c1ncn2[C@@H]1O[C@@H]2COP(=O)(O)O[C@H]2[C@H]1OC(=O)CCC` [dbcAMP, dibutyryl cyclic AMP] was tested. Which hEAAT2 promoter activity (hEAAT2 promoter [1]) did it give?
Answer: The hEAAT2 promoter activity was “potent stimulators”.

Question: What about the “stimulation of promoter activity after deletion of bp −2426 to bp −703” value (hEAAT2 promoter [2]; deletion mutant) of the same molecule?
Answer: The value was “did not significantly decrease”.

Question: What about the “upregulation of promoter activity after deletion of bp −703 to bp −326” value (hEAAT2 promoter [2]; deletion mutant) of the same molecule?
Answer: The value was “most relevant”.

Question: And the “upregulation of hEAAT2 promoter activity” value (hEAAT2 promoter [2]; flhEAAT2Prom-luc)?
Answer: The value was ~3 fold.
